Laboratory results published in patent publication US9169463B2, “Stem cell for therapeutic use which is derived from human monocyte, and method for inducing same” (OTSUKA PHARMACEUTICAL CO., LTD., priority 2008, dated 2015).

System: peripheral blood monocytes
Test: Comparison of stem cell-inducing activities of various gangliosides (viable cells, CellTiter-Glo)
Format: cell-based, human
Conditions: gangliosides 100 μg/ml, rhM-CSF 25 ng/ml, second week of culture
Experimental: More specifically, gangliosides were added to a culture medium at a final concentration of 100 μg/ml, and peripheral blood monocytes were cultured.
rhM-CSF was added thereto at a final concentration of 25 ng/ml. Then, the number of viable cells in the second week of culture was quantified as luciferase activity using CellTiter-Glo (Promega).

| Substance | stem cell-inducing activity (number of viable cells as luciferase activity, FIG. 3) |
| --- | --- |
| aNeu5Ac(2-3)bDGalp(1-3)bDGalNAc(1-4)[aNeu5Ac(2-3)]bDGalp(1-4)bDGlcp(1-1)Cer [GD1a] | equally-strong stem cell-inducing activities |
| aNeu5Ac(2-3)bDGalp(1-3)bDGalNAc(1-4)[aNeu5Ac(2-8)aNeu5Ac(2-3)]bDGalp(1-4)bDGlcp(1-1)Cer [GT1b] | equally-strong stem cell-inducing activities |
| bDGalp(1-3)bDGalNAc[aNeu5Ac(2-3)]bDGalp(1-4)bDGlcp(1-1)Cer [GM1] | equally-strong stem cell-inducing activities |
